Article PMC5321741, “Arylmethylamino steroids as antiparasitic agents” (Nature Communications, 2017)

Tests used:
[1] = test system: P. falciparum (strain 3D7); assay: 72 h 3H-hypoxanthine incorporation assay, asexual blood stages; type: cell-based, Plasmodium falciparum; settings: Plasmodium falciparum, 3D7, 72 h 3H-hypoxanthine incorporation, asexual blood stages; read-out: Antiplasmodial activity IC50 Pf (3D7)
[2] = test system: haem; assay: ESI-MS collision-induced dissociation of haem adducts; type: binding; settings: 50 µM haem and 50 µM substrate; for DV50 (dissociation voltage at 50%) of haem adduct: ESI-CID, 20 V to 400 V; for Bottom plateau (adduct remaining at 400 V): fragmentor voltage 400 V
Procedure: Compound Molar Adduct DV50 Bottom Dissociation mass [Haem+S] (V) plateau Constant
Supplementary Table 7. ESI-MS-CID data (m/z, calculated DV50 = dissociation voltage at 50% and % bottom plateau) of the [haematin-drug]+ adducts and dissociation constants (KD, µM) of the haematin-drug complexes measured with absorption spectrophotometric titrations.
Conditions: 50 µM haem and 50 µM substrate in H2O/CH3CN (5/95) + 0.1% formic acid.
Stability responses of the haem substrate adduct were obtained via ESI-CID experiments.
Positive mode; fragmentor voltage from 20 V to 400 V with 20 V increments. […]
- 41/120 g), and complete dissolution was achieved using an ultrasonic bath. All solutions were protected from daylight to avoid any photochemical degradation. All the physiochemical measurements were carried out at 25.0(2) °C. […]
Electrospray mass spectrometric measurements stopping point
Electrospray mass spectra of the haem complexes were obtained with an Agilent Technologies 6120 quadrupole equipped with an electrospray (ESI) interface. For

[3] = cytotoxicity on HeLa cells; type: cell-based; settings: human, HeLa cells
Procedure: (§1) Compounds were tested for their antiproliferative activity on HUVEC and K-562 cells and for cytotoxicity on HeLa cells using standard protocols. K-562 (DSM ACC 10), HUVEC (ATCC CRL-1730), and HeLa (DSM ACC 57) cells were cultured as described previously. To assay the antiproliferative and cytotoxic effect, procedures were carried out as described before. In brief, for each experiment with K-562 and HeLa ∼10,000 cells were seeded per well of the 96-well microplates. For the cytotoxicity assay, the HeLa cells were preincubated for 48 h without the test substances. Cells were incubated for 72 h at 37 °C in a humidified atmosphere and 5% CO2. Suspension cultures of K-562 in microplates were analysed by an electronic cell analyzer system CASY 1 (SCHÄRFE, Reutlingen, Germany). The monolayer of the HUVEC and HeLa cells were fixed by glutaraldehyde (MERCK) and stained with a 0.05% solution of methylene blue (SERVA). After gently washing, the stain was eluted by 0.2 ml of 0.33 N HCl in the wells. The optical densities were measured at 660 nm in a microplate reader. The calculations of the different values of GI50 and CC50 were performed with the software Magellan (TECAN).

[4] = test system: HUVEC; assay: antiproliferative activity on HUVEC cells; type: cell-based; settings: Homo sapiens, HUVEC, 72 h
Procedure: as §1

[5] = test system: P. berghei GFP ANKA malaria strain; assay: P. berghei mouse model (Peter's test); type: in vivo, Plasmodium berghei in NMRI mice; settings: for % activity (reduction of parasitaemia): day 4
Procedure: The animal experiments described here were performed at the Swiss Tropical and Public Health Institute (Swiss TPH, Basel, Switzerland), they were approved by the Swiss Cantonal Authorities (‘Kantonales Veterinäramt Basel Stadt') adhering to local and national regulations of laboratory animal welfare in Switzerland. The best compounds were tested in the murine P. berghei model essentially as described. The infection was initiated at day 0 with the P. berghei GFP ANKA malaria strain (donation from AP Waters and CJ Janse, Leiden University). From donor mice (female NMRI mice, 18–20 grams (about 3 weeks) from Charles River Germany) with ∼30% parasitaemia, heparinized blood was taken and diluted in physiological saline to 10^8 parasitized erythrocytes/ml. An aliquot (0.2 ml) of this suspension was injected intravenously into experimental and control groups of mice (female NMRI mice, 18–20 grams (about 3 weeks) from Charles River Germany). Usually, in untreated control mice parasitaemia rose regularly to ∼30% by day 3 post-infection. Control mice died between days 6 and 7 post infection. In the experiments described here, however, control animals (n=5) were killed on day 4 post infection for ethical reasons.
The steroid compounds were prepared at an appropriate concentration as a solution/suspension in Tween 80/alcohol (7:3, Tween 80 and absolute ethanol, respectively), followed by a 10x dilution in water. […] The route of administration was i.p., p.o., s.c. in a volume of 10 ml kg^−1.
The degree of infection (parasitaemia expressed in % of infected erythrocytes) was determined by FACS analysis on day 4 (96 h post infection). The difference of the mean infection rate of the control group (=100%) to the test group was calculated and expressed as a percent reduction. For example, activity determination with a mean of 2% parasitaemia in treated mice and a mean of 40% parasitaemia in the control animals is calculated as follows: (40−2%)/40% × 100=95% activity. The survival time in days was recorded up to 30 days after infection. A compound was considered curative if the animal survived to day 30 after infection with no detectable parasites (confirmed by light microscopy).

[6] = test system: K-562; assay: antiproliferative activity on K-562 cells; type: cell-based; settings: Homo sapiens, K562, 72 h
Procedure: as §1

Compound | IC50 [1] | other results
COc1ccc2c(c1)CCC1C2CC[C@@]2(C)C1CC[C@H]2N (some centres unmarked) [1a] | > 1000 nM | DV50 (dissociation voltage at 50%) of haem adduct [2]: 218 V; Bottom plateau (adduct remaining at 400 V) [2]: 1.2%
COc1ccc2c(c1)CCC1C2CC[C@@]2(C)C1CC[C@H]2/N=C/c1ccccc1O (some centres unmarked) [1b] | > 2500 nM | 
COc1ccc2c(c1)CCC1C2CCC2(C)C(NCc3cccc(O)c3)CCC12 (centres unmarked) [1e] | 434 nM | 
COc1ccc2c(c1)CCC1C2CCC2(C)C(NCc3ccc(O)cc3)CCC12 (centres unmarked) [1g] | 116 nM | 
COc1ccc2c(c1)CCC1C2CCC2(C)C(NCc3ccccc3OC)CCC12 (centres unmarked) [1i] | 872 nM | 
COc1ccc(CNC2CCC3C4CCc5cc(OC)ccc5C4CCC23C)cc1 (centres unmarked) [1k] | 1010 nM | 
COc1ccc2c(c1)CCC1C2CC[C@@]2(C)C1CC[C@H]2NCc1cc(Cl)ccc1O (some centres unmarked) [1s] | 11 nM | 
COc1ccc2c(c1)CCC1C2CC[C@@]2(C)C1CC[C@@H]2N (some centres unmarked) [2a] | > 1000 nM | DV50 (dissociation voltage at 50%) of haem adduct [2]: 210 V; Bottom plateau (adduct remaining at 400 V) [2]: 1.8%
COc1ccc2c(c1)CCC1C2CC[C@@]2(C)C1CC[C@@H]2/N=C/c1ccccc1O (some centres unmarked) [2b] | > 2500 nM | 
COc1ccc2c(c1)CCC1C2CC[C@@]2(C)C1CC[C@@H]2NCc1ccccc1O (some centres unmarked) [2c] | 73 nM | CC50 at 72 h [3]: 42900 nM; GI50 [4]: 10000 nM; Mouse survival in days, Average ([5]; 3x 10 mg/kg s.c.): 10 days; % activity (reduction of parasitaemia) ([5]; 3x 10 mg/kg s.c.): 47%; Mouse survival in days, Average ([5]; 3x 30 mg/kg s.c.): 14 days; % activity (reduction of parasitaemia) ([5]; 3x 30 mg/kg s.c.): 87%; Mouse survival in days, Average ([5]; 3x 100 mg/kg p.o.): 16 days; % activity (reduction of parasitaemia) ([5]; 3x 100 mg/kg p.o.): 99%; GI50 [6]: 5100 nM
COc1ccc2c(c1)CCC1C2CC[C@@]2(C)C1CC[C@@H]2NCc1cccc(O)c1 (some centres unmarked) [2e] | 741 nM | 
COc1ccc2c(c1)CCC1C2CC[C@@]2(C)C1CC[C@@H]2NCc1c(O)ccc2ccccc12 (some centres unmarked) [2m] | 183 nM | 
COc1ccc2c(c1)CCC1C2CC[C@@]2(C)C1CC[C@@H]2/N=C/c1cc2ccccc2cc1O (some centres unmarked) [2n] | 5540 nM | 
CCN(CC)c1ccc(/C=N/[C@H]2CCC3C4CCc5cc(OC)ccc5C4CC[C@@]32C)c(O)c1 (some centres unmarked) [2p] | > 5000 nM | 
CCN(CC)c1ccc(CN[C@H]2CCC3C4CCc5cc(OC)ccc5C4CC[C@@]32C)c(O)c1 (some centres unmarked) [2q] | 713 nM | 
COc1ccc2c(c1)CCC1C2CC[C@@]2(C)C1CC[C@@H]2NCc1cc(Cl)ccc1O (some centres unmarked) [2s] | 62 nM | 
COc1ccc2c(c1)CCC1C2CC[C@@]2(C)C1CC[C@@H]2NCc1cc([N+](=O)[O-])ccc1O (some centres unmarked) [2u] | 114 nM | 
COc1ccc2c(c1)CCC1C2CC[C@]2(C)C[C@H](N)CC12 (some centres unmarked) [3a] | > 1000 nM | 
COc1ccc2c(c1)CCC1C2CC[C@]2(C)C[C@H](NCc3ccccc3O)CC12 (some centres unmarked) [3c] | 42 nM | CC50 at 72 h [3]: 20700 nM; GI50 [4]: 4100 nM; GI50 [6]: 3800 nM
COc1ccc2c(c1)CCC1C2CC[C@]2(C)C[C@@H](N)CC12 (some centres unmarked) [4a] | > 1000 nM | 
COc1ccc2c(c1)CCC1C2CC[C@]2(C)C[C@@H](NCc3ccccc3O)CC12 (some centres unmarked) [4c] | 63 nM | CC50 at 72 h [3]: 12000 nM; GI50 [4]: 3100 nM; GI50 [6]: 2600 nM
COc1ccc2c(c1)CCC1C2CC[C@@]2(C)C1C[C@@H](NCc1ccccc1O)[C@H]2O (some centres unmarked) [5c] | 160 nM | CC50 at 72 h [3]: 11300 nM; GI50 [4]: 2200 nM; GI50 [6]: 2000 nM
